# Laboratory results from patent publication US6107308A, “Piperidine derivatives” (Kowa Co., Ltd., priority 1997, dated 2000).
# Where a name gives a salt, the structure may show the parent alone.
# Legend:
# [1] = system: leukotriene D4 (LTD4)-induced contraction of guinea pig ileum; assay: Antileukotriene action (in vitro test), isotonic contraction of isolated ileum induced with LTD4; conditions: Cavia porcellus; test compound 10^-5 M, contraction with 10^-8 M LTD4; read-out: LTD4 action (inhibition exerted by a test compound at 10^-5 M)
# Experimental: (§1) Antihistaminic action and antileukotriene action (in vitro test):
# (§2) A guinea pig was subjected to ileectomy, and the ileum was cut to have a length of about 2 cm. Each piece of ileum was suspended in a Tyrode's buffer placed in a 20-ml organ bath. Isotonic contraction in response to histamine or leukotriene D4 was recorded by use of a recording apparatus. The Tyrode's buffer was aerated with a gas mixture (95% O2 -5% CO2) while the temperature of the buffer was maintained at 30° C. Antihstaminic activity was tested by adding 10^-8 to 10^-4 M histamine to the organ bath and obtaining a dose-response curve. After washing with a buffer several times, a test compound was added to the organ bath. Thirty minutes later, another dose-response curve of histamine was obtained. For the test of antileukotriene activity, effects exerted by addition of a 10^-5 M test compound on the contraction included with 10^-8 M LTD4 was investigated.
# [2] = target: histamine-induced contraction of guinea pig ileum (Cavia porcellus, UniProt P31389); assay: Antihistaminic action (in vitro test), isotonic contraction of isolated ileum in response to histamine; conditions: histamine 10^-8 to 10^-4 M, 30 min after addition of test compound; for Kb: read-out: Anti-histaminic action pA2 (converted)
# Experimental: as §1, §2
# LTD4 Receptor = target: T1, LTD4 Receptor (Cavia porcellus, UniProt Q2NNR5); assay: LTD4 Receptor binding inhibitory test ([^3 H] leukotriene D4); parameters: species or system guinea pig
# T1 construct: guinea pig lung protein; from tissue; host or cells: guinea pig lung
# T1 sequence (Q2NNR5 1-340): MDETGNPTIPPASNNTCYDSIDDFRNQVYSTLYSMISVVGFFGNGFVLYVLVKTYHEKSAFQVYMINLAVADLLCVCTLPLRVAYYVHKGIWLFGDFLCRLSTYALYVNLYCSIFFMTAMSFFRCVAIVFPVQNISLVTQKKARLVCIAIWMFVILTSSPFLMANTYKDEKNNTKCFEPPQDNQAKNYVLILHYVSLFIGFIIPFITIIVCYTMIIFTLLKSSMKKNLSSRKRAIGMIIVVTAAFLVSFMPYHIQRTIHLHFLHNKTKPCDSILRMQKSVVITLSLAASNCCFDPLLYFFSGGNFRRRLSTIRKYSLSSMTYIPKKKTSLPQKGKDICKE
# Experimental: LTD4 Receptor binding inhibitory test:
# Reaction was stopped by addition of ice-cold Tris-HCl/NaCl (10 mM/100 mM, pH 7.5) buffer, and immediately thereafter, the reaction mixture was filtered by use of a Wattman CF/C filter. The filter was washed twice, each time with 20 ml ice-cold buffer. Radioactivity of the residue was measured by use of a liquid scintillation counter. […] In a saturation test, 2 μM leukotriene D4 was used for the measurement of the amount of non-specific binding.
# H1 receptor [3] = target: H1 receptor (Cavia porcellus, UniProt P31389); assay: biochemical; format: binding, guinea pig
# Experimental: H1 receptor binding inhibitory test:
# Reaction was stopped by addition of ice-cold phosphate buffer, and immediately thereafter, the reaction mixture was filtered by use of a Wattman CF/C filter. The filter was washed twice, each time with 20 ml ice-cold buffer. Radioactivity of the residue was measured by use of a liquid scintillation counter. From the value as obtained when a test compound was not added and values as obtained when the test compound was added at different concentrations, there was determined a dose-response curve representing suppression action of the test compound, from which a 50% inhibitory concentration (IC50) was obtained. Based on the IC50 value and by use of the Cheng-Prusoff equation, a dissociation constant (KD) was calculated (Table 4). In a saturation test, 10^-4 M R(-)-dimethindene was used for the measurement of the amount of non-specific binding.
# [4] = system: leukotriene D4 (LTD4)-induced contraction of guinea pig ileum; assay: Antileukotriene action (in vitro test), isotonic contraction of isolated ileum induced with LTD4; conditions: Cavia porcellus; contraction with 10^-8 M LTD4
# H1 receptor [5] = target: T2, H1 receptor (Mus musculus, UniProt P70174); assay: Test on migration into the brain (ex vivo [^3 H]mepyramine binding in mouse brain after intraperitoneal administration); parameters: species or system mice; conditions: ip
# T2 construct: from tissue; host or cells: mouse brain homogenate after intraperitoneal dosing
# Experimental: Test on migration into the brain:
# The test was performed in accordance with a method described by Zang. […] Briefly, several mice each weighing 20-23 g were provided, and to each mouse was intraperitoneally administered a test sample having a predetermined concentration. One hour later, each mouse was sacrificed and its brain was removed. The brain tissue was mixed with 30 mM Na, K phosphate buffer (pH 7.5) so as to attain a concentration of 40 ml/g wet weight, and the mixture was homogenized. […] The mixture was incubated at 37° C. for 50 minutes. Subsequently, reaction was stopped by addition of ice-cold phosphate buffer, and immediately thereafter, the reaction mixture was filtered by use of a Wattman CF/C filter. The filter was washed twice, each time with 20 ml ice-cold buffer. Radioactivity of the residue was measured by use of a liquid scintillation counter. […] The cerebral migration index, BPindex, was calculated from the following equation.
# BPindex=IC50 (mg/kg)/dissociation constant for H1 recepters (nM)
# Chain of histamine-induced contraction of guinea pig ileum (P31389 whole entry): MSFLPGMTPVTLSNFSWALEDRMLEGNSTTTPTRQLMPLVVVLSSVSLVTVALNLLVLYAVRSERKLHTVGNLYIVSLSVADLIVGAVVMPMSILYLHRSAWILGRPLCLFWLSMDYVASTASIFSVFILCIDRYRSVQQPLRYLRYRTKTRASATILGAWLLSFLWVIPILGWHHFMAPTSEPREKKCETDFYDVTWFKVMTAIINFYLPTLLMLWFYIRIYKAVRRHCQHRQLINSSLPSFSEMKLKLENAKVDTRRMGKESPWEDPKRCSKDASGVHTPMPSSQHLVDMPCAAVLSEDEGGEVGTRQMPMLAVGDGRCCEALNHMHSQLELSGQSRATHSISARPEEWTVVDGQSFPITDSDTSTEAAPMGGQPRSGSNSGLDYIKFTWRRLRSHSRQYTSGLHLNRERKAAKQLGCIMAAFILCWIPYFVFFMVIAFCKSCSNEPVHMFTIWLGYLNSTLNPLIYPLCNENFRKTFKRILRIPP
# Chain of H1 receptor (Cavia porcellus, UniProt P31389) (P31389 whole entry): as above
# T2 sequence (P70174 whole entry): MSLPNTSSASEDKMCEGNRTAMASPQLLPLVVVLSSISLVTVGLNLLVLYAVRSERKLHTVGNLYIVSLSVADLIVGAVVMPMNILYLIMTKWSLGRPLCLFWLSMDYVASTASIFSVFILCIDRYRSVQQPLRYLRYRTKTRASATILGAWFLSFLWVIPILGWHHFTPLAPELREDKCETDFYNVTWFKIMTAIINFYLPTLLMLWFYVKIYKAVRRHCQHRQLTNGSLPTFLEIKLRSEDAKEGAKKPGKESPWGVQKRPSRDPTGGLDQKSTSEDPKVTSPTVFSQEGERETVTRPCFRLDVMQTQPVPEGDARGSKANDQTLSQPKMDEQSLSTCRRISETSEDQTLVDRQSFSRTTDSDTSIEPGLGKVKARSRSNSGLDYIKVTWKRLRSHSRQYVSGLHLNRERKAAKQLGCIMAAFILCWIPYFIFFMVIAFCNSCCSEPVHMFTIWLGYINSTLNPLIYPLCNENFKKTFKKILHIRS
SMILES,Anti-histaminic action pD'2 [2],Kb [2] [nM],Kd (LTD4 Receptor) [nM],Kd (H1 receptor [3]) [nM],IC50 [4] [nM],"ED50 (H1 receptor [5]; 1 h, read-out: IC50 (ex vivo)) [mg/kg]",inhibition at 10 µM [1] [%],"selectivity ratio at 1 h (H1 receptor [5]; brain, BPindex = IC50 (mg/kg)/dissociation constant for H1 receptors (nM), read-out: cerebral migration index, BP index)"
"Cc1ccc(OCCCN2CCC(=Cc3ccc4ccccc4n3)CC2)c2c1NC(=O)CC2 [Example 3, 8-Methyl-5-[3-[4-(2-quinolylmethylene)piperidino]propoxy]-1,2,3,4-tetrahydroquinolin-2-one]",–,0.141,55000,–,–,–,77,–
"O=C1CSc2cc(OCCCN3CCC(=Cc4ccc5ccccc5n4)CC3)ccc2N1 [Example 2, 7-[3-[4-(2-Quinolylmethylene)piperidino]propoxy]-3,4-dihydro-2H-1,4-benzothiazin-3-one]",8.22,–,–,–,–,–,21,–
"O=C1CCc2cc(OCCN3CCC(=Cc4ccc5ccccc5n4)CC3)ccc2N1 [Example 4, 6-[2-[4-(2-Quinolylmethylene)piperidino]ethoxy]-1,2,3,4-tetrahydroquinolin-2-one]",–,–,12700,164,–,–,–,–
"O=C1CCc2ccc(OCCCN3CCC(=Cc4ccc5ccccc5n4)CC3)cc2N1 [Example 9, 7-[3-[4-(2-Quinolylmethylene)piperidino]propoxy]-1,2,3,4-tetrahydroquinolin-2-one oxalate]",–,2.95,–,–,–,–,15,–
"Cc1ccc(OCCN2CCC(=Cc3ccc4ccccc4n3)CC2)c2ccc(=O)[nH]c12 [Example 10, 8-Methyl-5-[2-[4-(2-quinolylmethylene)-piperidino]ethoxy]carbostyryl]",–,0.0832,9860,0.0351,–,33,61,930
"Cc1ccc(OCCCN2CCC(=Cc3ccc4ccccc4n3)CC2)c2ccc(=O)[nH]c12 [Example 11, 8-Methyl-5-[3-[4-(2-quinolylmethylene)-piperidino]propoxy]carbostyryl]",–,0.219,20000,–,–,–,39,–
"O=C1CCc2cc(OCCCN3CCC(=Cc4ccc5ccccc5n4)CC3)ccc2N1 [Example 5, 6-[3-[4-(2-Quinolylmethylene)piperidino]propoxy]-1,2,3,4-tetrahydroquinolin-2-one]",–,–,54400,0.0469,–,–,–,–
"C(=C1CCN(CCCOc2ccc3c(c2)CCCc2nnnn2-3)CC1)c1ccc2ccccc2n1 [Example 14, 8-[3-[4-(2-Quinolylmethylene)piperidino]propoxy]-5,6-dihydro-4H-tetrazolo[1,5-a]benz[b]azepine oxalate]",–,0.0525,98900,–,–,–,40,–
"O=C1CCCc2cc(OCCCN3CCC(=Cc4ccc5ccccc5n4)CC3)ccc2N1 [Example 12, 7-[3-[4-(2-Quinolylmethylene)piperidino]propoxy]-2,3,4,5-tetrahydro-1H-benz[b]azepin-2-one oxalate]",–,0.178,15800,0.0238,–,–,12,–
"O=C1CCc2cccc(OCCCN3CCC(=Cc4ccc5ccccc5n4)CC3)c2N1 [Example 8, 8-[3-[4-(2-Quinolylmethylene)piperidino]propoxy]-1,2,3,4-tetrahydroquinolin-2-one oxalate]",–,0.224,–,–,–,–,30,–
"O=C1NCCCc2cc(OCCCN3CCC(=Cc4ccc5ccccc5n4)CC3)ccc21 [Example 13, 7-[3-[4-(2-Quinolylmethylene)piperidino]propoxy]-2,3,4,5-tetrahydro-1H-benz[c]azepin-1-one oxalate]",–,0.174,19000,1.15,–,–,39,–

# Continued, in another order:
Anti-histaminic action pD'2 [2],Kb [2] [nM],Kd (LTD4 Receptor) [nM],Kd (H1 receptor [3]) [nM],IC50 [4] [nM],"ED50 (H1 receptor [5]; 1 h, read-out: IC50 (ex vivo)) [mg/kg]",SMILES,inhibition at 10 µM [1] [%],"selectivity ratio at 1 h (H1 receptor [5]; brain, BPindex = IC50 (mg/kg)/dissociation constant for H1 receptors (nM), read-out: cerebral migration index, BP index)"
8.01,–,–,–,–,–,"O=C1CSc2cc(OCCCN3CCC(Cc4ccc5ccccc5n4)CC3)ccc2N1 [Example 16, 7-[3-[4-(2-Quinolylmethyl)piperidino]propoxy]-3,4-dihydro-2H-1,4-benzothiazin-3-one]",15,–
–,0.162,–,–,–,–,"Cc1ccc(OCCCN2CCC(Cc3ccc4ccccc4n3)CC2)c2ccc(=O)[nH]c12 [Example 26, 8-Methyl-5-[3-[4-(2-quinolylmethyl)-piperidino]propoxy]carbostyryl]",29,–
–,0.468,–,–,3400,–,"Cc1ccc(OCCN2CCC(Cc3ccc4ccccc4n3)CC2)c2ccc(=O)[nH]c12 [Example 25, 8-Methyl-5-[2-[4-(2-quinolylmethyl)-piperidino]ethoxy]carbostyryl]",88,–
–,0.166,–,–,–,–,"Cc1ccc(OCCN2CCC(Cc3ccc4ccccc4n3)CC2)c2c1NC(=O)CC2 [Example 17, 8-Methyl-5-[2-[4-(2-quinolylmethyl)piperidino]ethoxy]-1,2,3,4-tetrahydroquinolin-2-one]",23,–
–,0.324,8060,3.1,–,–,"Cc1ccc(OCCCN2CCC(Cc3ccc4ccccc4n3)CC2)c2c1NC(=O)C2(C)C [Example 15, 4-[3-[4-(2-quinolylmethyl)piperidino]-propoxy]-3,3,7-trimethyl-2,3-dihydro-1H-indol-2-one]",19,–
